Experimental data taken from ChEMBL document CHEMBL1201862, “PubChem BioAssay data set” (2004).
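Compound exposure: 48 hours, 5 concentrations, 96-well plates. GI50 marks 50% less growth.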 Calls of active or inactive are those of the source. Rule as the data show it: active = GI50 up to about 1.1 µM and inactive = higher.

How the values were obtained:
Test in all cases: NCI tumour cell line growth inhibition, 48 h
786-0 = test system: 786-0
A498 = test system: A498
A549 = test system: A549
ACHN = test system: ACHN
CCRF-CEM = test system: CCRF-CEM
COLO 205 = test system: COLO 205
DLD-1 = test system: DLD-1
DMS-114 = test system: DMS-114
DMS-273 = test system: DMS-273
EKVX = test system: EKVX
HCC 2998 = test system: HCC 2998
HCT-116 = test system: HCT-116
HCT-15 = test system: HCT-15
HL-60 = test system: HL-60
HOP-18 = test system: HOP-18
HOP-62 = test system: HOP-62
HOP-92 = test system: HOP-92
HT-29 = test system: HT-29
IGROV-1 = test system: IGROV-1
K562 = test system: K562
KM-20L2 = test system: KM-20L2
KM12 = test system: KM12
LOX IMVI = test system: LOX IMVI
LXFL 529 = test system: LXFL 529
M14 = test system: M14
M19-MEL = test system: M19-MEL
MOLT-4 = test system: MOLT-4
Malme-3M = test system: Malme-3M
NCI-H226 = test system: NCI-H226
NCI-H23 = test system: NCI-H23
NCI-H460 = test system: NCI-H460
NCI-H522 = test system: NCI-H522
OVCAR-3 = test system: OVCAR-3
OVCAR-4 = test system: OVCAR-4
OVCAR-5 = test system: OVCAR-5
OVCAR-8 = test system: OVCAR-8
RPMI-8226 = test system: RPMI-8226
RXF 393 = test system: RXF 393
SF-268 = test system: SF-268
SF-295 = test system: SF-295
SF-539 = test system: SF-539
SK-MEL-28 = test system: SK-MEL-28
SK-MEL-2 = test system: SK-MEL-2
SK-MEL-5 = test system: SK-MEL-5
SK-OV-3 = test system: SK-OV-3
SNB-78 = test system: SNB-78
SR = test system: SR
SW-620 = test system: SW-620
TK-10 = test system: TK-10
U-251 = test system: U-251
UACC-257 = test system: UACC-257
UACC-62 = test system: UACC-62
UO-31 = test system: UO-31
XF498 = test system: XF498
CAKI-1 = test system: CAKI-1
SN12C = test system: SN12C
SNB-19 = test system: SNB-19
SNB-75 = test system: SNB-75

CCCCNS(=O)(=O)c1ccc(-c2ccc3c(c2)-c2ccc(S(=O)(=O)NCCCC)cc2S3(=O)=O)cc1
GI50 (786-0): 11.6 µM (inactive)
GI50 (A498): 11.4 µM (inactive)
GI50 (A549): 14 µM (inactive)
GI50 (ACHN): 21.6 µM (inactive)
GI50 (CCRF-CEM): 26.1 µM (inactive)
GI50 (COLO 205): 25.3 µM (inactive)
GI50 (DLD-1): 43.6 µM (inactive)
GI50 (DMS-114): 7.52 µM (inactive)
GI50 (DMS-273): 20 µM (inactive)
GI50 (EKVX): 39.4 µM (inactive)
GI50 (HCC 2998): > 100 µM (inactive)
GI50 (HCT-116): 14.9 µM (inactive)
GI50 (HCT-15): 72.8 µM
GI50 (HL-60): > 100 µM (inactive)
GI50 (HOP-18): 20.7 µM (inactive)
GI50 (HOP-62): 14.9 µM (inactive)
GI50 (HOP-92): 19.3 µM (inactive)
GI50 (HT-29): 19.2 µM (inactive)
GI50 (IGROV-1): 32.8 µM (inactive)
GI50 (K562): 3.03 µM (inactive)
GI50 (KM-20L2): 4.15 µM (inactive)
GI50 (KM12): 22.9 µM (inactive)
GI50 (LOX IMVI): 15 µM (inactive)
GI50 (LXFL 529): 13.2 µM (inactive)
GI50 (M14): 17.3 µM (inactive)
GI50 (M19-MEL): 21.5 µM (inactive)
GI50 (MOLT-4): > 100 µM (inactive)
GI50 (Malme-3M): 14.9 µM (inactive)
GI50 (NCI-H226): 12.6 µM (inactive)
GI50 (NCI-H23): 12.7 µM (inactive)
GI50 (NCI-H460): 10.4 µM (inactive)
GI50 (NCI-H522): 14.5 µM (inactive)
GI50 (OVCAR-3): 24.9 µM (inactive)
GI50 (OVCAR-4): 2.65 µM (inactive)
GI50 (OVCAR-5): > 100 µM (inactive)
GI50 (OVCAR-8): 7.98 µM (inactive)
GI50 (RPMI-8226): 27.9 µM (inactive)
GI50 (RXF 393): 10.8 µM (inactive)
GI50 (SF-268): 9.48 µM (inactive)
GI50 (SF-295): 15 µM (inactive)
GI50 (SF-539): 12.1 µM (inactive)
GI50 (SK-MEL-28): 10 µM (inactive)
GI50 (SK-MEL-2): 12.9 µM (inactive)
GI50 (SK-MEL-5): 2.18 µM (inactive)
GI50 (SK-OV-3): 16.9 µM (inactive)
GI50 (SNB-78): 12.4 µM (inactive)
GI50 (SR): 72.1 µM (inactive)
GI50 (SW-620): 15.2 µM (inactive)
GI50 (TK-10): 28.8 µM (inactive)
GI50 (U-251): 23 µM (inactive)
GI50 (UACC-257): 13.1 µM (inactive)
GI50 (UACC-62): 13.2 µM (inactive)
GI50 (UO-31): 42.5 µM (inactive)
GI50 (XF498): 10.3 µM (inactive)

[N-]=[N+]=NCC(O)Cn1cnc2c(NC(=O)c3ccccc3)ncnc21 (stereo unspecified)
GI50 (786-0): 41.8 µM (inactive)
GI50 (A498): > 100 µM (inactive)
GI50 (A549): > 100 µM (inactive)
GI50 (ACHN): > 100 µM (inactive)
GI50 (CAKI-1): > 100 µM (inactive)
GI50 (CCRF-CEM): > 100 µM (inactive)
GI50 (COLO 205): 27.8 µM (inactive)
GI50 (DLD-1): > 100 µM (inactive)
GI50 (DMS-114): 67.1 µM (inactive)
GI50 (DMS-273): 64.4 µM (inactive)
GI50 (EKVX): > 100 µM (inactive)
GI50 (HCC 2998): > 100 µM (inactive)
GI50 (HCT-116): > 100 µM (inactive)
GI50 (HCT-15): > 100 µM
GI50 (HL-60): > 100 µM (inactive)
GI50 (HOP-18): > 100 µM (inactive)
GI50 (HOP-62): > 100 µM (inactive)
GI50 (HOP-92): > 100 µM (inactive)
GI50 (HT-29): > 100 µM (inactive)
GI50 (IGROV-1): > 100 µM (inactive)
GI50 (K562): 79.4 µM (inactive)
GI50 (KM-20L2): > 100 µM (inactive)
GI50 (KM12): > 100 µM (inactive)
GI50 (LOX IMVI): > 100 µM (inactive)
GI50 (LXFL 529): > 100 µM (inactive)
GI50 (M14): > 100 µM (inactive)
GI50 (M19-MEL): > 100 µM (inactive)
GI50 (MOLT-4): > 100 µM (inactive)
GI50 (Malme-3M): > 100 µM (inactive)
GI50 (NCI-H226): > 100 µM (inactive)
GI50 (NCI-H23): > 100 µM (inactive)
GI50 (NCI-H460): > 100 µM (inactive)
GI50 (NCI-H522): > 100 µM (inactive)
GI50 (OVCAR-4): > 100 µM (inactive)
GI50 (OVCAR-5): > 100 µM (inactive)
GI50 (OVCAR-8): > 100 µM (inactive)
GI50 (RPMI-8226): > 100 µM (inactive)
GI50 (RXF 393): > 100 µM (inactive)
GI50 (SF-268): > 100 µM (inactive)
GI50 (SF-295): > 100 µM (inactive)
GI50 (SF-539): > 100 µM (inactive)
GI50 (SK-MEL-28): > 100 µM (inactive)
GI50 (SK-MEL-2): > 100 µM (inactive)
GI50 (SK-MEL-5): > 100 µM (inactive)
GI50 (SN12C): > 100 µM (inactive)
GI50 (SNB-19): > 100 µM (inactive)
GI50 (SNB-75): > 100 µM (inactive)
GI50 (SNB-78): > 100 µM (inactive)
GI50 (SW-620): 43.8 µM (inactive)
GI50 (TK-10): > 100 µM (inactive)
GI50 (U-251): > 100 µM (inactive)
GI50 (UACC-257): > 100 µM (inactive)
GI50 (UACC-62): > 100 µM (inactive)
GI50 (UO-31): > 100 µM (inactive)
GI50 (XF498): > 100 µM (inactive)

CN(CCO)c1nc2c(c(=O)[nH]1)CNCC2
GI50 (786-0): > 100 µM (inactive)
GI50 (A549): > 100 µM (inactive)
GI50 (ACHN): > 100 µM (inactive)
GI50 (CAKI-1): > 100 µM (inactive)
GI50 (CCRF-CEM): > 100 µM (inactive)
GI50 (COLO 205): > 100 µM (inactive)
GI50 (DLD-1): > 100 µM (inactive)
GI50 (DMS-114): > 100 µM (inactive)
GI50 (DMS-273): > 100 µM (inactive)
GI50 (EKVX): > 100 µM (inactive)
GI50 (HCC 2998): > 100 µM (inactive)
GI50 (HCT-116): > 100 µM (inactive)
GI50 (HCT-15): > 100 µM
GI50 (HL-60): > 100 µM (inactive)
GI50 (HOP-18): > 100 µM (inactive)
GI50 (HOP-62): > 100 µM (inactive)
GI50 (HOP-92): > 100 µM (inactive)
GI50 (HT-29): > 100 µM (inactive)
GI50 (IGROV-1): > 100 µM (inactive)
GI50 (K562): > 100 µM (inactive)
GI50 (KM-20L2): > 100 µM (inactive)
GI50 (KM12): > 100 µM (inactive)
GI50 (LOX IMVI): > 100 µM (inactive)
GI50 (LXFL 529): > 100 µM (inactive)
GI50 (M14): > 100 µM (inactive)
GI50 (M19-MEL): 80.2 µM (inactive)
GI50 (MOLT-4): > 100 µM (inactive)
GI50 (Malme-3M): > 100 µM (inactive)
GI50 (NCI-H226): > 100 µM (inactive)
GI50 (NCI-H23): > 100 µM (inactive)
GI50 (NCI-H460): > 100 µM (inactive)
GI50 (NCI-H522): > 100 µM (inactive)
GI50 (OVCAR-3): > 100 µM (inactive)
GI50 (OVCAR-4): > 100 µM (inactive)
GI50 (OVCAR-5): > 100 µM (inactive)
GI50 (OVCAR-8): > 100 µM (inactive)
GI50 (RPMI-8226): > 100 µM (inactive)
GI50 (RXF 393): > 100 µM (inactive)
GI50 (SF-268): > 100 µM (inactive)
GI50 (SF-295): > 100 µM (inactive)
GI50 (SF-539): > 100 µM (inactive)
GI50 (SK-MEL-28): > 100 µM (inactive)
GI50 (SK-MEL-2): > 100 µM (inactive)
GI50 (SK-MEL-5): > 100 µM (inactive)
GI50 (SK-OV-3): > 100 µM (inactive)
GI50 (SN12C): > 100 µM (inactive)
GI50 (SNB-19): > 100 µM (inactive)
GI50 (SNB-75): 32.8 µM (inactive)
GI50 (SNB-78): > 100 µM (inactive)
GI50 (SR): > 100 µM (inactive)
GI50 (SW-620): > 100 µM (inactive)
GI50 (TK-10): > 100 µM (inactive)
GI50 (U-251): > 100 µM (inactive)
GI50 (UACC-257): > 100 µM (inactive)
GI50 (UACC-62): > 100 µM (inactive)
GI50 (UO-31): > 100 µM (inactive)
GI50 (XF498): > 100 µM (inactive)
